Experimental data taken from PubChem BioAssay AID179 (DTP/NCI, 2004).
Active and inactive are the calls of the source.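 The calls were made as follows: active = compounds giving half or more protection of infected cells from virus-caused growth loss, again on retest; inactive = the rest.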

System: CEM cells HIV-1 protection, formazan growth assay
Experiment: NCI AIDS Antiviral Assay
Settings: for IC50: measured here: growth of uninfected CEM cells
Method in brief: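 Protection of CEM cells against HIV-1 was scored from cell growth (soluble formazan) across five concentrations, with parallel uninfected cells. Lack of protection may reflect toxicity.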

| Structure (SMILES) | EC50 [µM] | IC50 [µM] | outcome |
| --- | --- | --- | --- |
| COC(=O)CCC(=O)c1ccc2c(c1)CC1(C2)Cc2ccc(C(=O)CCC(=O)OC)cc2C1 | > 200 | 42.7 |  |
| C=C(Cn1cnc2c(N)ncnc21)C(=O)OCC |  |  | inactive |
| CC(C)(C)OC(=O)NNC(=O)C1Cc2ccccc2OC1=O (stereo not given) | > 200 | > 200 |  |
| O=C(CCl)N1CCC(CC2(c3cc4ccccc4[nH]3)OCCO2)CC1 | > 200 | 5.01 |  |
| CC1CNC2(c3ccccc3)CSC=C(c3ccccc3)N12 (stereo not given) | > 200 | 117 |  |
| O=C(O)CN1C(=O)CN=C(c2ccccn2)c2cc(Cl)ccc21 | > 759 | > 759 |  |
| Cc1nnc2n1N=C(CC(=O)c1ccc(O)cc1O)CN2N | > 832 | > 832 |  |
| COc1ccc(S(=O)(=O)N/N=C\c2cc([N+](=O)[O-])cc(I)c2O)c(OC)c1OC | > 468 | 67.6 |  |
| COC1/C=C/OC2(C)Oc3c(C)c(O)c4c(O)c(cc(OCC(=O)N5CCCCCC5)c4c3C2=O)NC(=O)/C(C)=C\C=C\C(C)C(O)C(C)C(O)C(C)C(OC(C)=O)C1C (stereo not given) | > 200 | 39.8 |  |
| CC(=O)CN=C(C)NNc1ccc([N+](=O)[O-])cc1[N+](=O)[O-] | > 200 | 60.3 |  |
| Cn1ccnc1Oc1ccc(Cl)cc1 | > 200 | 9.77 |  |
| CCOC(=O)/C(C#N)=C/c1ccc([N+](=O)[O-])cc1 | > 21.4 | > 21.4 |  |
| CCOC1=NC(C(F)(F)F)(C(F)(F)F)N=C(N2CCCCC2)O1 | > 200 | 97.7 |  |
| O=c1[nH]c2ccccc2nc1CBr | > 200 | 2.82 |  |
| N#CNc1nc(N)c(-c2ccc(Cl)cc2)c(C(=O)Nc2ccc(Cl)c(Cl)c2)n1 |  |  | inactive |
| CCCCCCCCCCCCCCCCCCNc1nc(=O)n(C2CC(O)C(COP(=O)(O)OCC3OC(n4cc(C)c(=O)[nH]c4=O)CC3N=[N+]=[N-])O2)cc1F (stereo not given) | 0.759 | 3.63 |  |
| CCOC(=O)/C(=C\c1ccc[nH]1)C(=O)c1ccccc1 | > 95.5 | > 95.5 |  |
| CCOP(=O)(OCC)C(NC(=O)C(C(F)(F)F)C(F)(F)F)c1ccccc1 (stereo not given) | > 200 | 24.5 |  |
| CC12CCC(=O)C[C@H]1CCC(OC=O)C2Br (stereo not given in full) |  |  | inactive |
| Cc1cc(O)c2c(c1)C(=O)C=CC2=O |  |  | inactive |
| CCOC(=O)CSc1nc(N)c2c(-c3ccc(OC)c(OC)c3)c3c(nc2n1)CCCC3 | > 200 | > 200 |  |
| O=C(/C=C\c1ccc(Cl)cc1Cl)c1cccs1 | > 200 | 32.4 |  |
| Nc1[nH]nc2nc3n(c(=O)c12)CCCCC3 | > 45.7 | > 45.7 |  |

| Structure (SMILES) | EC50 [µM] | IC50 [µM] | outcome |
| --- | --- | --- | --- |
| NNC(=O)C(=O)N/N=C(\CCCC(=O)Nc1ccc(Cl)cc1)CC(=O)c1ccc(F)cc1 | > 269 | > 269 |  |
| N#CCCN(C1=NN(C(=O)CC(=O)Nc2ccccc2Cl)C(c2ccccc2)C1)c1ccccc1Cl (stereo not given) | > 36.3 | > 36.3 |  |
| CC1OC(OC2C(CO)OC(O[C@H]3CC[C@@]4(C)C(=CC[C@H]5[C@@H]6C[C@@H]7O[C@@]8(CC[C@H](C)CN8)[C@@H](C)[C@@H]7[C@@]6(C)CC[C@@H]54)C3)C(OC3OC(C)C(O)C(O)C3O)C2O)C(O)C(O)C1O (stereo not given in full) |  |  | inactive |
| O=C(CCn1[nH]c(=O)c(Cl)c(Cl)c1=O)NO | > 933 | 832 |  |
| CCOC(=O)C(NC(=O)OC(C)(C)C)C(=O)OCC | > 200 | > 200 |  |
| CC12Cc3ccccc3CC1OCN1CN2COC2Cc3ccccc3CC21C (stereo not given) | > 13.2 | > 13.2 |  |
| CCCCCCCCCCCCOC1OC(COC(C)=O)C(OC(C)=O)C(OC(C)=O)C1OC(C)=O (stereo not given) (tested in a mixture with another compound) | > 38 | 24 |  |
| O=C1Nc2ccc(Cl)cc2C(c2ccccc2Cl)=NC1O (stereo not given) |  |  | inactive |
| O=C1OCCN1CCO | > 200 | > 200 |  |
| O=C1C2[C@@H](C(=O)N1c1ccc(Br)cc1)C13C(=CC2([N+](=O)[O-])[C@@H]2C(=O)N(c4ccc(Br)cc4)C(=O)[C@@H]21)c1ccccc1N3c1ccccc1 (stereo not given in full) | > 6.76 | > 6.76 |  |
| Cc1cn(C2CC(N=[N+]=[N-])C(COC(=O)CCOCCCCCCCCCl)O2)c(=O)[nH]c1=O (stereo not given) | 0.00692 | 20 |  |
| Cc1ccc(/C=C2\N=C(N3CCCC(CO)C3)NC2=O)cc1 (stereo not given) | > 200 | > 200 |  |
| CCOc1ccc(NC(=S)N/C=C(/C#N)C(N)=O)cc1 | > 200 | 158 |  |
| CCC1(NC(=O)CN)C(=O)NC(=O)NC1=O | > 200 | > 200 |  |
| COc1c(CCl)cc(-c2cc(=O)c3ccccc3s2)cc1CCl | > 200 | > 200 |  |
| O=C(O)CC(O)(c1ccccc1C(=O)O)c1cccc2ccccc12 (stereo not given) |  |  | inactive |
| COc1ccc(N=c2ssc3c(=S)ssc23)cc1 |  |  | inactive |
| S=c1sc2nc(Cl)nc(Cl)c2s1 | > 200 | 13.2 |  |
| CC(CNCCCNCCNCCCNCO)[N+](=O)[O-] (stereo not given) |  |  | inactive |
| O=c1[nH]c2ccc([As](=O)(O)O)cc2[nH]1 | > 200 | > 200 |  |
| c1cc2c(cc1C1OCC3C(c4ccc5c(c4)OCO5)OCC13)OCO2 (stereo not given) | > 100 | 58.9 |  |
| CC1CCC(C(C)C)C(OC2(c3ccccc3)OC(=O)c3ccccc32)C1 (stereo not given) |  |  | inactive |
